Measurements from US11634466B2, “Musclin peptides and methods of use thereof” (UNIVERSITY OF IOWA RESEARCH FOUNDATION, priority 2016, dated 2023).

What was measured:
[1] = molecular target: T1, NP clearance receptor, NPRC (Homo sapiens, UniProt P17342); conditions: background statement; cited from earlier work
T1 sequence (P17342 27-541): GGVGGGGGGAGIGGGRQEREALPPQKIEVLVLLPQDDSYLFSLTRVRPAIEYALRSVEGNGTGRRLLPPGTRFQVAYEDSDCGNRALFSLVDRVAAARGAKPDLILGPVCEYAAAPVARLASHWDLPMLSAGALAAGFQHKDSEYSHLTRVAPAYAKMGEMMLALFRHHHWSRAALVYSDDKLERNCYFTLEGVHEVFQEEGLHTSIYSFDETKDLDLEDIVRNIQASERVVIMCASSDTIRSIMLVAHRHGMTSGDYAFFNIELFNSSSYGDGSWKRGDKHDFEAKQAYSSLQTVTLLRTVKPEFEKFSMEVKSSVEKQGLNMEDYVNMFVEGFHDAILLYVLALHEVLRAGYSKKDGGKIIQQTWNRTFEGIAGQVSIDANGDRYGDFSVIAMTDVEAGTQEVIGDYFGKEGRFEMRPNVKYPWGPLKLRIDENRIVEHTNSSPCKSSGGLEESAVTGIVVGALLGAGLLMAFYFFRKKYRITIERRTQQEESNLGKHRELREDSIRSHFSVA

[2] = tested on: WT and Ostn-KO mice; test: Voluntary exercise performance on running wheels during musclin infusion; assay type: in vivo
Method: Whole body composition was obtained by time-domain nuclear magnetic resonance under isoflurane anesthesia (Bruker Minispec; Billerica, Mass.). Osmotic pumps: Osmotic pumps (model 1004, 100 μl volume, 0.11 μl/hr release rate, 28 days duration, Alzet Durect, Cupertino, Calif.), loaded with saline vs. 50 μg of mouse musclin peptide (SFSGFGSPLDRLSAG SVEHRGKQRKAVDHSKKR (SEQ ID NO: 4), corresponding to amino acids 80-112, Gen Bank ID: AAS87598.1, synthesized by Biosynthesis, Lewisville, Tex.) were surgically implanted within the peritoneal cavity of mice under sterile conditions and general anesthesia. Mice recovered for 7 days before exercise testing was performed.
Mice were housed in individual cages with free access to attached running wheels (Columbus Instruments, Columbus, Ohio). Running distance was calculated as 1/6πD·ΣRMPi, where D is wheel diameter and ΣRMPi is sum of averaged RPM values.

[3] = molecular target: T2, NPRB (Homo sapiens, UniProt P20594); conditions: background statement; without activating the linked guanylyl cyclase; cited from earlier work
T2 sequence (P20594 23-1047): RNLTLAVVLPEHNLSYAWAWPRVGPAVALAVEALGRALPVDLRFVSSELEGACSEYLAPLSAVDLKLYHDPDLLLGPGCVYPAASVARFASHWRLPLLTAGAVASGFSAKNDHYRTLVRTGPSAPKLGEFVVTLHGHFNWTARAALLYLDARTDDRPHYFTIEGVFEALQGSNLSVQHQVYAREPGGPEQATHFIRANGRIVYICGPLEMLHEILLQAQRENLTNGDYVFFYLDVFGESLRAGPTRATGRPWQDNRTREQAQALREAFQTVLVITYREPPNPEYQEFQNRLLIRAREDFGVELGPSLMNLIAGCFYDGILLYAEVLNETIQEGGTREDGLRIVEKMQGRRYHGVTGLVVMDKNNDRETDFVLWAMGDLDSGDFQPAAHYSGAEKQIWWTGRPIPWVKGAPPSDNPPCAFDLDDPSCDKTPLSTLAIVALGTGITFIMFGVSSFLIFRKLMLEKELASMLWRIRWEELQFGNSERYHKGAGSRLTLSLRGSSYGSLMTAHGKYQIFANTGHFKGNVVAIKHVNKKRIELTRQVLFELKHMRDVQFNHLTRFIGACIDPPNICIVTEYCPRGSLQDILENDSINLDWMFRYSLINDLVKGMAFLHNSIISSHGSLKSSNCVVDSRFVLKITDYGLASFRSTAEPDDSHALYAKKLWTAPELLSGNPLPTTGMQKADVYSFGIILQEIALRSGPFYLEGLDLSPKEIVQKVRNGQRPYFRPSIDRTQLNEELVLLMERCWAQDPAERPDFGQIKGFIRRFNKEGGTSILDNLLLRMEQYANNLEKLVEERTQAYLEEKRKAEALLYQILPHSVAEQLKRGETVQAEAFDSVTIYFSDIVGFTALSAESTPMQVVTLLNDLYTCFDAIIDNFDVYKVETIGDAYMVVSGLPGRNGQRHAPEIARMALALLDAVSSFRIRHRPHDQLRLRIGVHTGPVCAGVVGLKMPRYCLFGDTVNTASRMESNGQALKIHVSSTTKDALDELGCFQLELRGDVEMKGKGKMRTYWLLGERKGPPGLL

[4] = Ostn-KO mice treated with musclin by osmotic pump, night, n=4
[5] = WT mice treated with musclin by osmotic pump, night, n=5

H-SFSGFGSPLDRLSAGSVEHRGKQRKAVDHSKKR-OH [musclin]
binding to NPRC [1]: affinity comparable to NPs
night-time mean velocity, voluntary running wheel ([2]; Ostn-KO mice treated with musclin by osmotic pump, n=4): 53±15 rotations/5 min.
distance run, voluntary running wheel [2, 4]: 2290±632 meters
duration of running, voluntary running wheel [2, 4]: 333 ± 53 min
distance, voluntary running wheel [2, 5]: 2202±280 meters
duration, voluntary running wheel [2, 5]: 336 ± 39 min
mean velocity, voluntary running wheel [2, 5]: 51±7 rotations/5 min.
binding to NPRB [3]: weak binding
